Source: patent US20240116985A1, “STAPLED PEPTIDES AND METHODS THEREOF” (priority 2020, published 2024)
Converted amounts (≈) assume the structure as drawn. Where two headings read alike, the source gives them in different places.

What was measured:
[1] = Solubility in PBS; format: physicochemical
In short: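 PBS sample ultracentrifuged; supernatant run on HPLC vs. 50 μM peptide in DMSO standard. Solubility = (PBS peak area / DMSO peak area) × 50 uM.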

[2] = CHI Log D procedure; format: physicochemical; conditions: for chromatographic logD: pH 7.4, CHI Log D; for CHI Log D: pH 7.4
[3] = biological target: T1, full-length beta-Catenin (Uniprot ID P35222) (Homo sapiens, UniProt P35222); assay: Fluorescence polarization IC50 (beta-catenin / 5FAM-TCF4 10-53 competition); format: binding
T1 construct: 10 nM full-length beta-Catenin (Uniprot ID P35222)
T1 sequence (P35222 1-781): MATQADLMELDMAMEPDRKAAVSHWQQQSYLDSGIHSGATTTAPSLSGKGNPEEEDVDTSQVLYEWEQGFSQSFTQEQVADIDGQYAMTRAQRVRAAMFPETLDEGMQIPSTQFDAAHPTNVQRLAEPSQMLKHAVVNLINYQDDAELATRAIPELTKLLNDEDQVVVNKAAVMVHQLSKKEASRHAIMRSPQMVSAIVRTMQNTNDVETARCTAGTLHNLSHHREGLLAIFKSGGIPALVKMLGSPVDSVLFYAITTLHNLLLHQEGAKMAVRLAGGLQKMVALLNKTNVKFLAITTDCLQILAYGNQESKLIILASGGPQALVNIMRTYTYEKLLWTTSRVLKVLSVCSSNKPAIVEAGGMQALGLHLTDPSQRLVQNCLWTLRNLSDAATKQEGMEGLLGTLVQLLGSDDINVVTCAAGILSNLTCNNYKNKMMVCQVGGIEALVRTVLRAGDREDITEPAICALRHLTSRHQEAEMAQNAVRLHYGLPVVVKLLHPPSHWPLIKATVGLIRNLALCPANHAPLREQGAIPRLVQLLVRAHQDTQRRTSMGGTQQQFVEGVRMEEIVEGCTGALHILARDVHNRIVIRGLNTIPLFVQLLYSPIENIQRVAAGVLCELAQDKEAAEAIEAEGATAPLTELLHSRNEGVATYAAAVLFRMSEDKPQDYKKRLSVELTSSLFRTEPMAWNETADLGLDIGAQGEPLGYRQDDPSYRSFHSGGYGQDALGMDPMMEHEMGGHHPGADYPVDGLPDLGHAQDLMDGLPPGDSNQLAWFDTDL

[4] = biological target: T2, beta-catenin/TCF4 engagement (Homo sapiens, UniProt P35222); assay: Nano-BRET target engagement assay (B-cat-Halo & TCF4-Luc in HEK293 cells); format: cell-based; conditions: for inhibition at 10 µM: HEK293, @ 10 uM, read-out: NanoBRET % inh @ 10 uM
T2 construct: expressed in transfected cells; host or cells: HEK293
T2 sequence (P35222 1-781): T1 sequence (P35222 1-781)

[5] = absolute IC50, read-out: NanoBRET Abs IC50
[6] = fluorescence polarization, read-out: beta-Catenin FP IC50

Row | SMILES | Solubility [1] [µM] | chromatographic logD [2] | IC50 ([3]; read-out: beta-Catenin FP IC50) [nM] | IC50 [4, 5] [nM] | CHI Log D [2] | IC50 [3, 6] [nM] | also measured
1 | CC(=O)N1CCC[C@]12CC=CCCCC1(CCCC=CCCCOC(=O)N3CC[C@@](C(=O)N[C@@H](Cc4ccccc4Cl)C(=O)N[C@@H](Cc4csc5ccccc45)C(=O)N[C@@H](CO)C(N)=O)(C3)NC(=O)[C@H](CC(N)=O)NC(=O)[C@H](Cc3ccccc3)NC(=O)[C@H](C)NC(=O)[C@H](C)NC(=O)[C@H](CC(=O)O)NC(=O)[C@H](CC(=O)O)NC1=O)NC(=O)[C@H](Cc1ccccc1)NC(=O)[C@H](CC(=O)O)NC2=O (stereo partly drawn) [I-1047, Ac-PL3-Asp-Phe-B5-Asp-Asp-Ala-Ala-Phe-Asn-PyrS2-2C1F-BztA-Ser-NH2] | 10 (≈ 19.3 µg/mL) | 2.19 | 5 | 28400 |  |  | 
2 | CC(=O)N1CCC[C@]12CC=CCCCC1(CCCC=CCCCCCC[C@@](C)(C(=O)N[C@@H](Cc3ccccc3)C(=O)N[C@@H](Cc3csc4ccccc34)C(=O)N[C@@H](Cc3c[nH]cn3)C(N)=O)NC(=O)[C@H](CC(N)=O)NC(=O)[C@H](Cc3ccccc3)NC(=O)[C@H](C)NC(=O)[C@H](C)NC(=O)[C@H](CC(=O)O)NC(=O)[C@H](CC(=O)O)NC1=O)NC(=O)[C@H](CC(C)C)NC(=O)[C@H](CC(=O)O)NC2=O (stereo partly drawn) [I-565, Ac-PL3-Asp-Leu-B5-Asp-Asp-Ala-Ala-Phe-Asn-S8-Phe-BztA-His-NH2] | 26 (≈ 48.5 µg/mL) |  |  | 26000 | 2.435 | 13 | IC50 ([3]; read-out: FP EC50): 13 nM
3 | CC(=O)N1CCC[C@]12CC=CCCCC1(CCCC=CCCCCCC[C@@](C)(C(=O)N[C@@H](Cc3ccccc3)C(=O)N[C@@H](Cc3csc4ccccc34)C(=O)N[C@@H](CCC(N)=O)C(N)=O)NC(=O)[C@H](CC(N)=O)NC(=O)[C@H](Cc3ccccc3)NC(=O)[C@H](C)NC(=O)[C@H](C)NC(=O)[C@H](CN(CC(=O)O)CC(F)(F)F)NC(=O)[C@H](CC(=O)O)NC1=O)NC(=O)[C@H](CC(C)(C)C)NC(=O)[C@H](CC(=O)O)NC2=O (stereo partly drawn) [I-703, Ac-PL3-Asp-Npg-B5-Asp-TfeGA-Ala-Ala-Phe-Asn-S8-Phe-BztA-Gln-NH2] | 50 (≈ 99 µg/mL) | 2.76 |  |  |  | 57 | IC50 ([4]; Abs IC50, read-out: NanoBRET Abs IC50): 11900 nM
4 | CC(=O)N1CCC[C@]12CC=CCCCC1(CCCC=CCCCCCC[C@@](C)(C(=O)N[C@@H](Cc3ccsc3)C(=O)N[C@@H](Cc3csc4ccccc34)C(=O)N[C@@H](CCC(N)=O)C(N)=O)NC(=O)[C@H](CC(N)=O)NC(=O)[C@H](Cc3ccccc3)NC(=O)[C@H](C)NC(=O)[C@H](C)NC(=O)[C@H](CN(CC(=O)O)CC(F)(F)F)NC(=O)[C@H](CC(=O)O)NC1=O)NC(=O)[C@H](CC1CCCCC1)NC(=O)[C@H](CC(=O)O)NC2=O (stereo partly drawn) [I-708, Ac-PL3-Asp-Cha-B5-Asp-TfeGA-Ala-Ala-Phe-Asn-S8-3Thi-BztA-Gln-NH2] | 47 (≈ 94.6 µg/mL) |  |  |  | 2.976 | 52 | IC50 ([3]; read-out: FP EC50): 52 nM; IC50 ([4]; read-out: NanoBRET IC50): 11500 nM
5 | CC(=O)N1CCC[C@]12CC=CCCCC1(CCCC=CCCCOC(=O)N3CC[C@@](C(=O)N[C@@H](Cc4ccsc4)C(=O)N[C@@H](Cc4csc5ccccc45)C(=O)N[C@@H](CCC(N)=O)C(N)=O)(C3)NC(=O)[C@H](CC(N)=O)NC(=O)[C@H](Cc3ccccc3)NC(=O)[C@H](C)NC(=O)[C@H](C)NC(=O)[C@H](CCCNC(N)=O)NC(=O)[C@H](CC(=O)O)NC1=O)NC(=O)[C@H](CC(C)(C)C)NC(=O)[C@H](CC(=O)O)NC2=O (stereo partly drawn) [I-840, Ac-PL3-Asp-Npg-B5-Asp-Cit-Ala-Ala-Phe-Asn-PyrS2-3Thi-BztA-Gln-NH2] |  | 2.19 | 16 | 22300 |  |  | Solubility ([1]; Solubility (uM)): 32 µM (≈ 62.7 µg/mL)
6 | CC(=O)N1CCC[C@]12CC=CCCCC1(CCCC=CCCCOC(=O)N3CC[C@@](C(=O)N[C@@H](Cc4ccsc4)C(=O)N[C@@H](Cc4csc5ccccc45)C(=O)N[C@@H](CCC(N)=O)C(=O)N[C@@H](CCCCNC(=O)CN4CCN(C)CC4)C(N)=O)(C3)NC(=O)[C@H](CC(N)=O)NC(=O)[C@H](Cc3ccccc3)NC(=O)[C@H](C)NC(=O)[C@H](C)NC(=O)[C@H](CC(=O)O)NC(=O)[C@H](CC(=O)O)NC1=O)NC(=O)[C@H](CC(C)(C)C)NC(=O)[C@H](CC(=O)O)NC2=O (stereo partly drawn) [I-906, Ac-PL3-Asp-Npg-B5-Asp-Asp-Ala-Ala-Phe-Asn-PyrS2-3Thi-BztA-Gln-MePipAc Lys-NH2] |  | 1.75 | 8 |  |  |  | solubility at 15 min ([1]; Solubility (uM)): 46 µM (≈ 101 µg/mL); IC50 ([4]; read-out: NanoBRET IC50): > 20000 nM
7 | CC(=O)N1CCC[C@]12CC=CCCCC1(CCCC=CCCCOC(=O)N3CC[C@@](C(=O)N[C@@H](Cc4ccccc4Cl)C(=O)N[C@@H](Cc4csc5ccccc45)C(=O)N[C@@H](CCC(N)=O)C(=O)NCCCCCCN)(C3)NC(=O)[C@H](Cc3ccccc3)NC(=O)[C@H](Cc3ccccc3)NC(=O)[C@H](C)NC(=O)[C@H](C)NC(=O)[C@H](CN(CC(=O)O)CC(F)(F)F)NC(=O)[C@H](CC(=O)O)NC1=O)NC(=O)[C@H](CC(C)(C)C)NC(=O)[C@H](CC(=O)O)NC2=O (stereo partly drawn) [I-1012, Ac-PL3-Asp-Npg-B5-Asp-TfeGA-Ala-Ala-Phe-Phe-PyrS2-2C1F-BztA-Gln-6AmHex] | 10 (≈ 21.9 µg/mL) | 2.61 | 60 |  |  |  | IC50 ([4]; read-out: NanoBRET Abs IC50): 37900 nM
8 | CC(=O)N1CCC[C@]12CC=CCCCC1(CCCC=CCCCOC(=O)N3CC[C@@](C(=O)N[C@@H](Cc4ccsc4)C(=O)N[C@@H](Cc4csc5ccccc45)C(=O)N[C@@H](CCC(N)=O)C(N)=O)(C3)NC(=O)[C@H](CC(N)=O)NC(=O)[C@H](Cc3ccccc3)NC(=O)[C@H](CCCCNC(=O)c3ccc(CN4CCOCC4)cc3)NC(=O)[C@H](C)NC(=O)[C@H](CC(=O)O)NC(=O)[C@H](CC(=O)O)NC1=O)NC(=O)[C@H](CC(C)(C)C)NC(=O)[C@H](CC(=O)O)NC2=O (stereo partly drawn) [I-890, Ac-PL3-Asp-Npg-B5-Asp-Asp-Ala-[MeMorphBz]Lys-Phe-Asn-PyrS2-3Thi-BztA-Gln-NH2] |  | 1.67 | 16 |  |  |  | Solubility ([1]; Solubility (uM)): 40 µM (≈ 87.1 µg/mL); IC50 ([4]; read-out: NanoBRET Abs IC50): > 20000 nM
9 | CC(=O)N1CCC[C@]12CC=CCCCC1(CCCC=CCCCCCC[C@@](C)(C(=O)N[C@@H](Cc3ccsc3)C(=O)N[C@@H](Cc3csc4ccccc34)C(=O)N[C@@H](CCC(N)=O)C(N)=O)NC(=O)[C@H](CC(N)=O)NC(=O)[C@H](Cc3ccccc3)NC(=O)[C@H](C)NC(=O)[C@H](C)NC(=O)[C@H](CCC(=O)O)NC(=O)[C@H](CC(=O)O)NC1=O)NC(=O)[C@H](C)NC(=O)[C@H](CC(=O)O)NC2=O (stereo partly drawn) [I-519, Ac-PL3-Asp-Ala-B5-Asp-Glu-Ala-Ala-Phe-Asn-S8-3Thi-BztA-Gln-NH2] | 50 (≈ 91.7 µg/mL) |  |  | 28800 | 2.004 | 33 | IC50 ([3]; read-out: FP EC50): 33 nM
10 | COc1ccccc1C[C@H](NC(=O)[C@]12CCN(C1)C(=O)OCCCC=CCCCC1(CCCC=CC[C@]3(CCCN3C(C)=O)C(=O)N[C@@H](CC(=O)O)C(=O)N[C@@H](CC(C)(C)C)C(=O)N1)C(=O)N[C@@H](CC(=O)O)C(=O)N[C@@H](CC(=O)O)C(=O)N[C@@H](C)C(=O)N[C@@H](C)C(=O)N[C@@H](Cc1ccccc1)C(=O)N[C@@H](CC(N)=O)C(=O)N2)C(=O)N[C@@H](Cc1csc2ccccc12)C(=O)N[C@@H](Cc1c[nH]cn1)C(N)=O (stereo partly drawn) [I-781, Ac-PL3-Asp-Npg-B5-Asp-Asp-Ala-Ala-Phe-Asn-PyrS2-2OMeF-BztA-His-NH2] |  | 2.16 | 5 |  |  |  | Solubility ([1]; Solubility (uM)): 41 µM (≈ 80 µg/mL); inhibition at 10 µM [4]: 24%; IC50 ([4]; read-out: NanoBRET IC50): 11600 nM
11 | CC(=O)N1CCC[C@]12CC=CCCCC1(CCCC=CCCCOC(=O)N3CC[C@@](C(=O)N[C@@H](Cc4ccsc4)C(=O)N[C@@H](Cc4csc5ccccc45)C(=O)N[C@@H](Cc4c[nH]cn4)C(N)=O)(C3)NC(=O)[C@H](CC(N)=O)NC(=O)[C@H](Cc3ccccc3)NC(=O)[C@H](C)NC(=O)[C@H](C)NC(=O)[C@H](CC(=O)O)NC(=O)[C@H](CC(=O)O)NC1=O)NC(=O)[C@H](CC(C)(C)C)NC(=O)[C@H](CC(=O)O)NC2=O (stereo partly drawn) [I-694, Ac-PL3-Asp-Npg-B5-Asp-Asp-Ala-Ala-Phe-Asn-PyrS2-3Thi-BztA-His-NH2] | 40 (≈ 77.1 µg/mL) |  |  |  | 2.073 | 5 | inhibition at 10 µM [4]: 32.7%
